Source: US20040106120A1, “Diagnosis and treatment of disease” (priority 2000, published 2004)

Legend:
[1] = system: corneodesmosomes in stratum corneum tape strips; experiment: Treatment of tape strips from psoriatic skin with proteases, corneodesmosome density by electron microscopy; design: species or system human; settings: 22-50 nM recombinant SCCE or SCTE, 1-6 h at 37° C
Protocol: Tape strips are obtained according to a method described by Guerrin et al, 1998.
Small pieces of tape strips from control patients along with patients suffering from the skin conditions eczema, psoriasis, dermatitis and psoriasis are fixed for 2 h at 4° C. in Karnovsky fixative (2% paraformaldehyde, 2.5% gluteraldehyde in 0.1M phosphate buffer, pH 7.4). The samples are then washed three times in 0.1M phosphate buffer (pH7.4) containing 10% sucrose for 30 minutes each at 4° C.
Secondary fixation is carried out in aqueous 2% osmium tetroxide solution for 1 hour at room temperature. Dehydration is through a graded series of ethanol at room temperature (75% ethanol for 15 minutes; 95% ethanol for 15 minutes; 2 washes of 100% ethanol for 15 minutes; 100% ethanol dried over anhydrous copper sulphate for 15 minutes).
For resin embedding, samples are first placed in the intermediate solvent, propylene oxide, for two changes of 15 minutes duration. This is followed by infiltration in a 50:50 mixture of propylene oxide:araldite resin overnight at room temperature. […]
Ultrathin sections (70-90 nm) are cut on an ultramicrotome. […] Electron micrographs are recorded on Agfa Scientific 23D56 EM film.
Corneodesmosome density (area occupied by corneodesmosomes divided by total area of micrograph) is measured on electron micrographs of tape strips of each condition. […]

[2] = target: T1, Envoplakin (Homo sapiens, UniProt Q92817); experiment: Cleavage of adhesion proteins from human epidermis by recombinant SCCE/SCTE (immunoblot); format: biochemical; settings: human epidermis protein extract incubated with active recombinant enzyme at 37 C
T1 construct: The native form of Envoplakin has a molecular weight of between 124-209 kDa; from tissue; host or cells: human epidermis (TENP-40 buffer extract)
Protocol: (§1) Recombinant ProSCCE is produced and purified as described above. Recombinant ProSCCE is activated with agarose-bound trypsin, as described in Brasttsand & Egelrud, 1999.
(§2) Proteins are extracted from human epidermis in the presence of a detergent (TENP-40 buffer extract) and incubated with active SCCE for 37 C. for 4 h. The reactions are stopped by boiling for 2 mins after Laemmli's sample buffer is added. The proteins are immunoblotted with antibodies against corneodesmosomal proteins.

[3] = system: Desmoglein; experiment: as above; format: biochemical; settings: human epidermis protein extract incubated with active recombinant enzyme at 37 C
Protocol: as §1, §2

[4] = target: T2, Corneodesmosin (Homo sapiens, UniProt Q15517); experiment: as above; format: biochemical; settings: human epidermis protein extract incubated with active recombinant enzyme at 37 C
T2 construct: The native form of corneodesmosin has a molecular weight of between 50 and 56 kDa; from tissue; host or cells: human epidermis (TENP-40 buffer extract)
T2 sequence (Q15517 33-529): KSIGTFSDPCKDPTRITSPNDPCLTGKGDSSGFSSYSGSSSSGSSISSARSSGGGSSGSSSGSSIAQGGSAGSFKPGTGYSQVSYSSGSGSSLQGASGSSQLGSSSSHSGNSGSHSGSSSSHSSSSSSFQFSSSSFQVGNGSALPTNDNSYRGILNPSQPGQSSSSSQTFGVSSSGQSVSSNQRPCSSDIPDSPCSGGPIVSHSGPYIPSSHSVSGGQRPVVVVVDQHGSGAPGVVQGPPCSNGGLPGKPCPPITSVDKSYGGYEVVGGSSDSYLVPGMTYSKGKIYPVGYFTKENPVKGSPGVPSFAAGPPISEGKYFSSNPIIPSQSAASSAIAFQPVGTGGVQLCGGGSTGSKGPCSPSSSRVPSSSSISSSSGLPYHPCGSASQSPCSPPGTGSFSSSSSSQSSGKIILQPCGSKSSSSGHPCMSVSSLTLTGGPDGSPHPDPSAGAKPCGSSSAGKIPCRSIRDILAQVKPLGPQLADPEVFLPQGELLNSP
Protocol: as §1, §2

[5] = system: Desmoplakin; experiment: as above; format: biochemical; settings: human epidermis protein extract incubated with active recombinant enzyme at 37 C
Protocol: as §1, §2

[6] = target: T3, Plakoglobin (Homo sapiens, UniProt P14923); experiment: as above; format: biochemical; settings: human epidermis protein extract incubated with active recombinant enzyme at 37 C
T3 construct: The native form of plakoglobin has a molecular weight of between 85 kDa and 75 kDa; from tissue; host or cells: human epidermis (TENP-40 buffer extract)
T3 sequence (P14923 1-745): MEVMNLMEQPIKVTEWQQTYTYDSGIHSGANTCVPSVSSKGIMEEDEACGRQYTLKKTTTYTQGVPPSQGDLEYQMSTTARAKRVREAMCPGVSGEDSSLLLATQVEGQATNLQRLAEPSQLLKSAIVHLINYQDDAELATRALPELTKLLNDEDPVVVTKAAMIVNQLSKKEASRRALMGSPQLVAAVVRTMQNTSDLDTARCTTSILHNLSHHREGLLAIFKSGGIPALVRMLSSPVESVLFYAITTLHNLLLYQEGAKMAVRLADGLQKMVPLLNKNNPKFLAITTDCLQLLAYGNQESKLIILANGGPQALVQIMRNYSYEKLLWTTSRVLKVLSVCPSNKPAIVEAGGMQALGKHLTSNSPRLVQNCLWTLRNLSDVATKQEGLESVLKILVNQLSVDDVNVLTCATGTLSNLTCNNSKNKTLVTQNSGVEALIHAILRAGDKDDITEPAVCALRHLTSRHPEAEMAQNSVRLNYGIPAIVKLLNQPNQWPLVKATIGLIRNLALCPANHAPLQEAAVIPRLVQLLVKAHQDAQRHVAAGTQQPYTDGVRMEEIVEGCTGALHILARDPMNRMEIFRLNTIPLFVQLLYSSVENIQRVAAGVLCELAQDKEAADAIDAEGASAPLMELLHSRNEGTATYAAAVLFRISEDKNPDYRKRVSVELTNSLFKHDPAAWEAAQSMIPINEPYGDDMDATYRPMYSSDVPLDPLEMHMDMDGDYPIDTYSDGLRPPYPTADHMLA
Protocol: as §1, §2

[7] = system: Desmocollin; experiment: as above; format: biochemical; settings: human epidermis protein extract incubated with active recombinant enzyme at 37 C
Protocol: as §1, §2

T1 sequence (Q92817 whole entry): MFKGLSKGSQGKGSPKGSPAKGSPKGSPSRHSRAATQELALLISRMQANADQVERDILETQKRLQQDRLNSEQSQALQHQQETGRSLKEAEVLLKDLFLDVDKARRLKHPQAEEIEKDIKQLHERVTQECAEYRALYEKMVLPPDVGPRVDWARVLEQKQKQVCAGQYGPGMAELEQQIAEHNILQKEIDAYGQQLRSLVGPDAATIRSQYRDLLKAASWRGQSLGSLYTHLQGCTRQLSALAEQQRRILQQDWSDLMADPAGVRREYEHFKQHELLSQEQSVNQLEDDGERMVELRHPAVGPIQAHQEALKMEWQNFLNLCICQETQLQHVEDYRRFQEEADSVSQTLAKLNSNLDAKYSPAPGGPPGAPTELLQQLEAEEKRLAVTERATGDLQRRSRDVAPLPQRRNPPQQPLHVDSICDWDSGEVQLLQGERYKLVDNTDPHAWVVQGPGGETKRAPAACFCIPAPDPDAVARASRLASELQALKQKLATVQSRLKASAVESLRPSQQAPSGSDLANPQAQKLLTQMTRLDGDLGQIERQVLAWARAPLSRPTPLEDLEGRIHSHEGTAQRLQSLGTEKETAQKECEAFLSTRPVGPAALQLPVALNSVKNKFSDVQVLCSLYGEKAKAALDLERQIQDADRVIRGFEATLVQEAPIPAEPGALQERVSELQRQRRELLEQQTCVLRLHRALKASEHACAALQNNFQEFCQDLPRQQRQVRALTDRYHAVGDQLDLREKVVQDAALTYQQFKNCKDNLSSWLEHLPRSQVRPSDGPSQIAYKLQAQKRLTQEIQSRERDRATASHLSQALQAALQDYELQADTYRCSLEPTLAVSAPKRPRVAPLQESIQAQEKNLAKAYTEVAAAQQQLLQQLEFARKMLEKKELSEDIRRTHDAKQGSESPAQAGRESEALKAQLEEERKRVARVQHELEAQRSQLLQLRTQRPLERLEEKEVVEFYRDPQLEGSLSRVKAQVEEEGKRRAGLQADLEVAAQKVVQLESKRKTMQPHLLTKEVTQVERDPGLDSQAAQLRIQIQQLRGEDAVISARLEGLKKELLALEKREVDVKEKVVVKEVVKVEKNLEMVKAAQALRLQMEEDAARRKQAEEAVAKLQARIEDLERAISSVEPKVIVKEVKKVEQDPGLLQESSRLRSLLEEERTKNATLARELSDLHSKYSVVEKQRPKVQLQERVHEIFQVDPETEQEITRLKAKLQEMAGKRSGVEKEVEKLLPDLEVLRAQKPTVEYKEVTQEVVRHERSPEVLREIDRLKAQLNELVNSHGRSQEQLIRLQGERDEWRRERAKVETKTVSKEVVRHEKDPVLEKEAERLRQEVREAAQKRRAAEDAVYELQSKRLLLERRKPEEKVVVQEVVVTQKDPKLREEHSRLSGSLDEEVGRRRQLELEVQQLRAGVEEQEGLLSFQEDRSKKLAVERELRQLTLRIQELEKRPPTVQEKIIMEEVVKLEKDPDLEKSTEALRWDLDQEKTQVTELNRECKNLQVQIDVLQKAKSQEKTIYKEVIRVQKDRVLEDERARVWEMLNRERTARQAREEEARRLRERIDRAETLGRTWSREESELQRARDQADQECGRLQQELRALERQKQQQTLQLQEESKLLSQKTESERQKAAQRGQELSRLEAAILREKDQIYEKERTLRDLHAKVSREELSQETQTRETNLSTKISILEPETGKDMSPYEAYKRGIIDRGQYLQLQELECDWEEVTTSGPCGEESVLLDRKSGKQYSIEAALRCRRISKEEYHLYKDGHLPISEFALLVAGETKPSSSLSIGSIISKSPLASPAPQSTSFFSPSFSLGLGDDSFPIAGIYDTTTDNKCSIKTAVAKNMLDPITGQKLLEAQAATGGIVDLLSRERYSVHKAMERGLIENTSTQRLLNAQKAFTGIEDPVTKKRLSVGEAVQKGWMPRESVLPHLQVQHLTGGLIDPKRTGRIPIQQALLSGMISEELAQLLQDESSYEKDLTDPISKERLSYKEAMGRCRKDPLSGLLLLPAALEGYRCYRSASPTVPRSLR

Substance: SCTE: recombinant Stratum Corneum Tryptic Enzyme expressed in an active form
- number of corneodesmosomes in treated versus untreated stratum corneum [1]: decrease significantly
- proteolysis of Envoplakin [2]: proteolysed
- proteolysis of Desmoglein [3]: proteolysed
- proteolysis of Corneodesmosin [4]: proteolysed
- proteolysis of Desmoplakin [5]: proteolysed
- proteolysis of Plakoglobin [6]: proteolysed
- proteolysis of Desmocollin [7]: proteolysed
